Reference: ChEMBL document CHEMBL4422633, “Antioxidant-Inspired Drug Discovery: Antitumor Metabolite Is Formed in Situ from a Hydroxycinnamic Acid Derivative upon Free-Radical Scavenging” (J Med Chem, 2019)
Active and inactive are the calls of the source. The rule behind the calls is not given here.

Assays:
[1] = Induction of apoptosis in human NCI-H460/R cells transfected with MDR assessed as late apoptotic cells at 10 uM after 24 hrs by Annexin V/propidium iodide-staining based flow cytometry (reference value: 0.84 +/- 0.01%); assay type: functional
[2] = test system: NCI-H661; assay: Reduction in ROS generation in human NCI-H661 cells assessed as decrease in DHE positive cells at 10 uM after 24 hrs by DHE-staining based flow cytometry; assay type: functional, cell-based
[3] = test system: HaCaT; assay: DNA protective activity in human HaCaT cells assessed as reduction in H2AX expression at 10 uM after 24 hrs by alexa fluor 488-staining based flow cytometry; assay type: functional, cell-based
[4] = test system: A549; assay: Induction of apoptosis in human A549 cells assessed as necrotic cells at 10 uM after 24 hrs by Annexin V/propidium iodide-staining based flow cytometry (reference value: 1.52 +/- 0.05%); assay type: functional
[5] = Cytotoxicity against mouse L5178 cells assessed as reduction in cell viability after 72 hrs by MTT assay; assay type: functional, cell-based; details: L5178, 72 h
[6] = test system: HaCaT; assay: Reduction in ROS generation in human HaCaT cells assessed as decrease in DHE positive cells at 10 uM after 24 hrs by DHE-staining based flow cytometry; assay type: functional, cell-based
[7] = test system: NCI-H661; assay: Cytotoxicity against human NCI-H661 cells assessed as reduction in cell viability after 72 hrs by MTT assay; assay type: functional, cell-based; details: NCI-H661, 72 h
[8] = Induction of apoptosis in human HaCaT cells assessed as viable cells at 10 uM after 24 hrs by Annexin V/propidium iodide-staining based flow cytometry (reference value: 95.63 +/- 3.83%); assay type: cell-based; details: read-out: Activity
[9] = species on record: Homo sapiens; assay: Reduction in ROS generation in human NCI-H460/R cells transfected with MDR assessed as reduction in DHE positive cells at 10 uM after 24 hrs by DHE-staining based flow cytometry; assay type: functional, cell-based
[10] = test system: HaCaT; assay: Induction of apoptosis in human HaCaT cells assessed as early apoptotic cells at 10 uM after 24 hrs by Annexin V/propidium iodide-staining based flow cytometry (reference value: 0.23 +/- 0.01%); assay type: cell-based
[11] = test system: HaCaT; assay: Induction of apoptosis in human HaCaT cells assessed as necrotic cells at 10 uM after 24 hrs by Annexin V/propidium iodide-staining based flow cytometry (reference value: 1.88 +/- 0.02%); assay type: cell-based
[12] = test system: NCI-H460; assay: Induction of apoptosis in human NCI-H460 cells assessed as early apoptotic cells at 10 uM after 24 hrs by Annexin V/propidium iodide-staining based flow cytometry (reference value: 0.45 +/- 0.01%); assay type: functional
[13] = test system: NCI-H460; assay: DNA protective activity in human NCI-H460 cells assessed as reduction in H2AX expression at 10 uM after 24 hrs by alexa fluor 488-staining based flow cytometry; assay type: functional, cell-based
[14] = test system: NCI-H661; assay: Induction of apoptosis in human NCI-H661 cells assessed as necrotic cells at 10 uM after 24 hrs by Annexin V/propidium iodide-staining based flow cytometry (reference value: 2.58 +/- 0.05%); assay type: functional
[15] = test system: A549; assay: Induction of apoptosis in human A549 cells assessed as viable cells at 10 uM after 24 hrs by Annexin V/propidium iodide-staining based flow cytometry (reference value: 96.45 +/- 2.89%); assay type: functional; details: A549, 24 h, read-out: Activity
[16] = test system: NCI-H661; assay: Induction of apoptosis in human NCI-H661 cells assessed as late apoptotic cells at 10 uM after 24 hrs by Annexin V/propidium iodide-staining based flow cytometry (reference value: 0.95 +/- 0.03%); assay type: functional
[17] = test system: A549; assay: Induction of apoptosis in human A549 cells assessed as late apoptotic cells at 10 uM after 24 hrs by Annexin V/propidium iodide-staining based flow cytometry (reference value: 1.54 +/- 0.03%); assay type: functional
[18] = test system: NCI-H661; assay: Induction of apoptosis in human NCI-H661 cells assessed as viable cells at 10 uM after 24 hrs by Annexin V/propidium iodide-staining based flow cytometry (reference value: 96.16 +/- 0.96%); assay type: functional; details: NCI-H661, 24 h, read-out: Activity
[19] = test system: HaCaT; assay: Cytotoxicity against human HaCaT cells assessed as reduction in cell viability after 72 hrs by MTT assay; assay type: cell-based
[20] = test system: NCI-H460; assay: Induction of apoptosis in human NCI-H460 cells assessed as necrotic cells at 10 uM after 24 hrs by Annexin V/propidium iodide-staining based flow cytometry (reference value: 2.13 +/- 0.02%); assay type: functional
[21] = test system: NCI-H460; assay: Induction of apoptosis in human NCI-H460 cells assessed as late apoptotic cells at 10 uM after 24 hrs by Annexin V/propidium iodide-staining based flow cytometry (reference value: 0.93 +/- 0.04%); assay type: functional
[22] = test system: NCI-H460; assay: Reduction in ROS generation in human NCI-H460 cells assessed as decrease in DHE positive cells at 10 uM after 24 hrs by DHE-staining based flow cytometry; assay type: functional, cell-based
[23] = species on record: Homo sapiens; assay: DNA protective activity in human NCI-H460/R cells transfected with MDR assessed as increase in H2AX expression at 10 uM after 24 hrs by alexa fluor 488-staining based flow cytometry; assay type: functional, cell-based
[24] = Induction of apoptosis in human NCI-H460/R cells transfected with MDR assessed as necrotic cells at 10 uM after 24 hrs by Annexin V/propidium iodide-staining based flow cytometry (reference value: 3.17 +/- 0.13%); assay type: functional
[25] = Induction of apoptosis in human NCI-H460/R cells transfected with MDR assessed as early apoptotic cells at 10 uM after 24 hrs by Annexin V/propidium iodide-staining based flow cytometry (reference value: 0.22 +/- 0.01%); assay type: functional
[26] = test system: NCI-H460; assay: Cytotoxicity against human NCI-H460 cells assessed as reduction in cell viability after 72 hrs by MTT assay; assay type: functional, cell-based; details: NCI-H460, 72 h
[27] = Cytotoxicity against mouse L5178B1 cells transfected with pHa MDR1/A retrovirus assessed as reduction in cell viability after 72 hrs by MTT assay; assay type: functional, cell-based; details: MDR1, 72 h
[28] = test system: HaCaT; assay: Induction of apoptosis in human HaCaT cells assessed as late apoptotic cells at 10 uM after 24 hrs by Annexin V/propidium iodide-staining based flow cytometry (reference value: 2.26 +/- 0.09%); assay type: cell-based
[29] = test system: A549; assay: Induction of apoptosis in human A549 cells assessed as early apoptotic cells at 10 uM after 24 hrs by Annexin V/propidium iodide-staining based flow cytometry (reference value: 0.48 +/- 0.01%); assay type: functional
[30] = test system: A549; assay: Cytotoxicity against human A549 cells assessed as reduction in cell viability after 72 hrs by MTT assay; assay type: functional, cell-based; details: A549, 72 h
[31] = test system: A549; assay: Reduction in ROS generation in human A549 cells assessed as decrease in DHE positive cells at 10 uM after 24 hrs by DHE-staining based flow cytometry; assay type: functional, cell-based
[32] = test system: HeLa; assay: Cytotoxicity against human HeLa cells assessed as reduction in cell viability after 72 hrs by MTT assay; assay type: functional, cell-based
[33] = Induction of apoptosis in human NCI-H460/R cells transfected with MDR assessed as viable cells at 10 uM after 24 hrs by Annexin V/propidium iodide-staining based flow cytometry (reference value: 95.76 +/- 2.87%); assay type: functional; details: NCI-H460, 24 h, read-out: Activity
[34] = test system: NCI-H661; assay: Induction of apoptosis in human NCI-H661 cells assessed as early apoptotic cells at 10 uM after 24 hrs by Annexin V/propidium iodide-staining based flow cytometry (reference value: 0.31 +/- 0.01%); assay type: functional
[35] = Cytotoxicity against human NCI-H460/R cells transfected with MDR assessed as reduction in cell viability after 72 hrs by MTT assay; assay type: functional, cell-based; details: NCI-H460, 72 h
[36] = test system: NCI-H460; assay: Induction of apoptosis in human NCI-H460 cells assessed as viable cells at 10 uM after 24 hrs by Annexin V/propidium iodide-staining based flow cytometry (reference value: 96.49 +/- 0.96%); assay type: functional; details: NCI-H460, 24 h, read-out: Activity

## COC(=O)/C=C/c1cc(O)ccc1O
[1]
  Activity: 2.48%
[2]
  Activity: Active
[3]
  Activity: Active
[4]
  Activity: 3.78%
[5]
  IC50: 5.23 µM
[6]
  Activity: Active
[7]
  IC50: 4.19 µM
[8]
  viability at 24 h, 10 µM: 91%
[9]
  Activity: Active
[10]
  Activity: 0.5%
[11]
  Activity: 5.9%
[12]
  Activity: 0.34%
[13]
  Activity: Active
[14]
  Activity: 6.69%
[15]
  viability at 10 µM: 88.2%
[16]
  Activity: 3.39%
[17]
  Activity: 5.62%
[18]
  viability at 10 µM: 89.4%
[19]
  IC50: 9.69 µM
[20]
  Activity: 9.92%
[21]
  Activity: 5.1%
[22]
  Activity: Active
[23]
  Activity: Active
[24]
  Activity: 7.71%
[25]
  Activity: 0.16%
[26]
  IC50: 3.77 µM
[27]
  IC50: 12.4 µM
[28]
  Activity: 2.65%
[29]
  Activity: 2.36%
[30]
  IC50: 4.14 µM
[31]
  Activity: Active
[32]
  IC50: 8.51 µM
[33]
  viability at 10 µM: 89.7%
[34]
  Activity: 0.49%
[35]
  IC50: 7.05 µM
[36]
  viability at 10 µM: 86.6%
